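Cells were grown in 96-well plates and exposed to each compound for 48 hours at five concentrations; endpoints were interpolated linearly between bracketing concentrations, or set to the highest concentration if not reached. GI50 is the concentration that inhibits growth by half. TGI: concentration producing complete growth inhibition.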
How the values were obtained:
Test in all cases: DTP human tumour cell line panel, 48 h; in the data active means GI50 below about 0.43 µM; inactive means the rest
786-0 renal = tested on: 786-0 renal
A498 renal = tested on: A498 renal
A549 NSCLC = tested on: A549 NSCLC
ACHN renal = tested on: ACHN renal
BT-549 breast = tested on: BT-549 breast
CAKI-1 renal = tested on: CAKI-1 renal
CCRF-CEM leukemia = tested on: CCRF-CEM leukemia
COLO 205 colon = tested on: COLO 205 colon
DU-145 prostate = tested on: DU-145 prostate
EKVX NSCLC = tested on: EKVX NSCLC
HCC-2998 colon = tested on: HCC-2998 colon
HCT-116 colon = tested on: HCT-116 colon
HCT-15 colon = tested on: HCT-15 colon
HL-60(TB) leukemia = tested on: HL-60(TB) leukemia
HOP-62 NSCLC = tested on: HOP-62 NSCLC
HOP-92 NSCLC = tested on: HOP-92 NSCLC
HS 578T breast = tested on: HS 578T breast
HT29 colon = tested on: HT29 colon
IGROV1 ovarian = tested on: IGROV1 ovarian
K-562 leukemia = tested on: K-562 leukemia
KM12 colon = tested on: KM12 colon
LOX IMVI melanoma = tested on: LOX IMVI melanoma
M14 melanoma = tested on: M14 melanoma
MALME-3M melanoma = tested on: MALME-3M melanoma
MCF7 breast = tested on: MCF7 breast
MDA-MB-231 breast = tested on: MDA-MB-231 breast
MDA-MB-435 = tested on: MDA-MB-435
MOLT-4 leukemia = tested on: MOLT-4 leukemia
NCI-H226 lung = tested on: NCI-H226 lung
NCI-H23 lung = tested on: NCI-H23 lung
NCI-H460 lung = tested on: NCI-H460 lung
NCI-H522 lung = tested on: NCI-H522 lung
NCI/ADR-RES ovarian = tested on: NCI/ADR-RES ovarian
OVCAR-3 ovarian = tested on: OVCAR-3 ovarian
OVCAR-4 ovarian = tested on: OVCAR-4 ovarian
OVCAR-5 ovarian = tested on: OVCAR-5 ovarian
OVCAR-8 ovarian = tested on: OVCAR-8 ovarian
PC-3 prostate = tested on: PC-3 prostate
RPMI-8226 leukemia = tested on: RPMI-8226 leukemia
RXF 393 renal = tested on: RXF 393 renal
SF-268 CNS = tested on: SF-268 CNS
SF-295 CNS = tested on: SF-295 CNS
SF-539 CNS = tested on: SF-539 CNS
SK-MEL-2 melanoma = tested on: SK-MEL-2 melanoma
SK-MEL-28 melanoma = tested on: SK-MEL-28 melanoma
SK-MEL-5 melanoma = tested on: SK-MEL-5 melanoma
SK-OV-3 ovarian = tested on: SK-OV-3 ovarian
SN12C renal = tested on: SN12C renal
SNB-19 CNS = tested on: SNB-19 CNS
SNB-75 CNS = tested on: SNB-75 CNS
SW-620 colon = tested on: SW-620 colon
T-47D breast = tested on: T-47D breast
TK-10 renal = tested on: TK-10 renal
U251 CNS = tested on: U251 CNS
UACC-257 melanoma = tested on: UACC-257 melanoma
UACC-62 melanoma = tested on: UACC-62 melanoma
UO-31 renal = tested on: UO-31 renal

O=C(CSCC(=O)N/N=C/c1cccc(OCc2ccccc2)c1)N/N=C/c1cccc(OCc2ccccc2)c1
> 92.8 µM: TGI (SK-MEL-5 melanoma)
46.4 µM: TGI (MOLT-4 leukemia)
39.9 µM: TGI (RPMI-8226 leukemia)
> 100 µM: TGI (786-0 renal) | TGI (A549 NSCLC) | TGI (ACHN renal) | TGI (BT-549 breast) | TGI (CAKI-1 renal) | TGI (CCRF-CEM leukemia) | TGI (COLO 205 colon) | TGI (DU-145 prostate) | TGI (EKVX NSCLC) | TGI (HCC-2998 colon) | TGI (HCT-116 colon) | TGI (HCT-15 colon) | TGI (HOP-62 NSCLC) | TGI (HS 578T breast) | TGI (HT29 colon) | TGI (IGROV1 ovarian) | TGI (K-562 leukemia) | TGI (KM12 colon) | TGI (LOX IMVI melanoma) | TGI (M14 melanoma) | TGI (MALME-3M melanoma) | TGI (MCF7 breast) | TGI (MDA-MB-231 breast) | TGI (MDA-MB-435) | TGI (NCI-H226 lung) | TGI (NCI-H23 lung) | TGI (NCI-H460 lung) | TGI (NCI-H522 lung) | TGI (NCI/ADR-RES ovarian) | TGI (OVCAR-3 ovarian) | TGI (OVCAR-4 ovarian) | TGI (OVCAR-5 ovarian) | TGI (OVCAR-8 ovarian) | TGI (RXF 393 renal) | TGI (SF-268 CNS) | TGI (SF-295 CNS) | TGI (SF-539 CNS) | TGI (SK-MEL-2 melanoma) | TGI (SK-MEL-28 melanoma) | TGI (SK-OV-3 ovarian) | TGI (SNB-19 CNS) | TGI (SNB-75 CNS) | TGI (SW-620 colon) | TGI (T-47D breast) | TGI (TK-10 renal) | TGI (U251 CNS) | TGI (UACC-62 melanoma) | TGI (UO-31 renal)
> 74 µM: TGI (SN12C renal)
inactive: GI50 (COLO 205 colon) 37.5 µM
> 85.1 µM: TGI (UACC-257 melanoma)
97.2 µM: TGI (HOP-92 NSCLC)
> 69.7 µM: TGI (A498 renal)
97.8 µM: TGI (PC-3 prostate)
53.3 µM: TGI (HL-60(TB) leukemia)
